Assay results published in publication PMC4366722 (Iranian Journal of Basic Medical Sciences, 2015).
Entries after “also recorded” stand apart in the source; their conditions may differ.

Legend:
[1] = tested on: mushroom tyrosinase; test: Diphenolase; assay type: biochemical; conditions: diphenolase activity
[2] = tested on: Melanoma cell lines (NCBI Code: C136; human skin); test: Cytotoxicity assay; assay type: cell-based; conditions: melanoma cells, 24 hr, MTT

Row | Inhibition (reversibility) [1] | Inhibition type [1] | Structure (SMILES) | effect on melanoma cell viability / cytotoxicity (in words) [2]
1 | reversibly | noncompetitive | Nc1ccc(C(=O)O)cc1 [4-amino benzoic acid] | no significant change
2 | reversibly | competitive | O=C(O)c1cccnc1 [Nicotinic acid, nicotinic acid] | declined remarkably; also recorded: cytotoxic effects
3 | reversibly | competitive | O=C(O)c1ccccn1 [Picolinic acid, picolinic acid] | declined remarkably; also recorded: cytotoxic effects

Row | Structure (SMILES) | Inhibition (reversibility) [1] | Inhibition type [1] | effect on melanoma cell viability / cytotoxicity (in words) [2]
4 | Nc1ccccc1C(=O)O [2-amino benzoic acid] | reversibly | noncompetitive | no significant change
